In patent US6420570B1, “Psoralen compounds” (priority 1993, dated 2002):
Structures can show the parent of a compound that is named as a salt. Where two headings read alike, the source gives them in different places.

What was measured:
TA1537 = test: Ames assay, dark mutagenicity, strain TA1537; settings: TA1537 −S9; 10 μg/plt
Method: (§1) In this example the compounds of the present invention are tested for their dark mutagenicity using an Ames assay. The procedures used for the Salmonella mutagenicity test as described in detail by Maron and Ames were followed exactly. Maron, D. M. and B. N. Ames, Mutation Research 113:173 (1983). A brief description for each procedure is given here. The tester strains TA97a, TA98, TA100, TA102, TA1537 and TA1538 were obtained from Dr. Ames. TA97a, TA98, TA1537 and TA1538 are frameshift tester strains. TA100 and TA102 are base-substitution tester strains. Upon receipt each strain was cultured under a variety of conditions to confirm the genotypes specific to the strains.
(§2) The first tests done with the strains were to determine the range of spontaneous reversion for each of the strains. With each mutagenicity experiment the spontaneous reversion of the tester strains to histidine independence was measured and expressed as the number of spontaneous revertants per plate. This served as the background controls.
(§3) For all experiments, the pre-incubation procedure was used. In this procedure one vial of each tester strain was thawed and 20 μL of this culture was added to 6 mL of Oxoid Nutrient Broth #2. This solution was allowed to shake for 10 hours at 37° C. In the pre-incubation procedure, 0.1 mL of this overnight culture was added to each of the required number of sterile test tubes. To half of the tubes 0.5 mL of a 10% S-9 solution containing Aroclor 1254 induced rat liver extract (Molecular Toxicology Inc., Annapolis, MD), and MgCl2, KCl, glucose-6-phosphate, NADP, and sodium phosphate buffer (Sigma, St. Louis. Mo.) were added. To the other half of the tubes 0.5 mL of 0.2M sodium phospate buffer, pH 7.4, was used in place of the S-9 mixture (the -S9 samples) Finally 0.1 mL of the test solution containing either 0.0.1, 0.5, 1, 5, 10, 50, 100, 250, or 500 μg/mL of the test compound was added. The 0.7 mL mixture pre-incubated while shaking for 20 minutes at 37° C. After shaking, 2 mL of molten top agar supplemented with histidine and biotin were added to the 0.7 mL mixture and immediately poured onto a minimal glucose agar plate (volume of base agar was 20 ml.). The top agar was allowed 30 minutes to solidify and then the plates were inverted and incubated for 44 hours at 37° C. After incubation the number of revertant colonies on each plate were counted. […] (“n” represents the number of replicates performed for each data point.)
(§4) Maron and Ames (1983) describe the conflicting views with regard to the statistical treatment of data generated from the test.

TA1538 = test: Ames assay, dark mutagenicity, strain TA1538; settings: TA1538; in the presence of S9
Method: as §1, §2, §3, §4

cell-free virus (HIV) = type: cell-based; settings: for HIV Log Kill 64 μM / HIV Log Kill 16 μM / HIV Log Kill 32 μM: 1 minute irradiation
R17 [1] = test: R17 bacteriophage inactivation screen, varying compound concentration; type: cell-based; settings: for R17 log kill 16 uM / R17 log kill 32 uM / R17 log kill 64 uM: starting titer approx. 7.1 logs
Method: The assay used to predict pathogen inactivation efficiency and to determine nucleic acid binding of the photoreactive binding compounds of the present invention was that in which a bacteriophage, R17, in solution with the desired substrate was irradiated. The ability of the phage to subsequently infect bacteria and inhibit their growth was measured. The bacteriophage was selected for its relatively accessible nucleic acid such that the culture growth inhibition would accurately reflect nucleic acid damage by the test compounds. The bacteriophage assay for nucleic acid binding to test compounds offers a safe and inexpensive procedure to identify compounds likely to display efficient pathogen inactivation. […] An aliquot (0.5 mL) was transferred to a 1.5 mL, snap-top polyethylene tube. An aliquot (0.004-0.040 mL) of the test compound stock solution prepared in water, ethanol or dimethylsulfoxide at 0.80-8.0 mM was added to the tube. Compounds were tested at concentrations between 4 μM and 320 μM. (AMT is commercially available from HRI, Inc., Concord, Calif.; 8-MOP is commercially available from Sigma, St. Louis, Mo.). The tubes were placed in a light device as described in EXAMPLE 1 and irradiated for between 1 and 10 minutes. […] To make the dilutions, a 0.100 mL aliquot of the irradiated solution of phage and test compound was added to the first dilution tube of 0.4 mL of media then 0.020 mL of this solution was added to the second tube of 0.5 mL medium (1:25). The second solution was then diluted serially (1:25) into the remaining tubes. […] After the top agar hardened, the plates were incubated at 37° C. overnight. The plaque forming units were then counted the following morning and the titer of the phage remaining after phototreatment was calculated based on the dilution factors. The following controls were run: the “phage only” in which phage was not treated with test compound and not irradiated (listed as “starting titer” in the tables below); the “UV only” in which the phage was irradiated in the absence of test compound; and the “dark” control in which the phage/test compound solution was not irradiated before it was diluted and plated.

TA100 = system: TA100
Method: as §1, §2, §3, §4

R17 [2] = test: R17 inactivation at constant concentration, varying doses of UV light; type: cell-based, bacteriophage R17; settings: UV doses 1.0 to 3.0 J/cm^2, FIGS. 11-17
Method: Compounds of the present invention were also tested at a constant concentration for varying doses of UV light. Three sets of 1.5 mL tubes were prepared containing 0.6 mL aliquots of R17 in DMEM (prepared as described above). The compound tested was added at the desired concentration and the samples were vortexed. The samples were then irradiated at intervals of 1.0 J/cm^2, until 3.0 J/cm^2 was reached. Between each 1.0 J/cm^2 interval, 100 μL was removed from each sample and placed in the first corresponding dilution tube, then five sequential dilutions were performed for each compound tested, at all 3 irradiation doses, as described above in this example.
Then 50 μL of Hfr 3000 bacteria was added to each tube, 3 mL of top agar was added and the tube contents were vortexed. The contents of each tube was poured into its own LB plate and the plates were incubated overnight at 37° C. Plaques were counted by visual inspection the following morning.

[3] = Table 8, HIV starting titer approximately 5 logs
[4] = Table 9, HIV starting titer approximately 5.4 logs

## Nc1c2ccccc2nc2ccccc12 [9-Aminoacridine, reference compound]
TA1537
  revertant colonies per plate, positive control: 284

## Cc1oc2c(C)c3oc(=O)cc(C)c3cc2c1CNCCN [Compound 1, 4′-(4-amino-2-aza)butyl-4,5′,8-trimethylpsoralen dihydrochloride]
TA1538
  dose at which the only mutagenic response (weak frameshift mutagen) was detected: 5 μg/plate
cell-free virus (HIV); [3]
  HIV Log Kill 64 μM: 2.1 log
R17 [1]; Table 3, runs 1-3, at most
  logs killed in the "dark" control: ≤ 0.1 logs
R17 [1]; Table 4
  R17 inactivation efficiency compared with 8-MOP: much R17 inactivatiotn efficiency than does 8-MOP
R17 [1]; Table 5, 8 uM, 1 minute irradiation, starting titer approx. 7.2 logs
  R17 Log Kill 8 uM: 1.7 log
R17 [1]; Table 5, 16 uM, 1 minute irradiation, starting titer approx. 7.2 logs
  R17 Log Kill 16 uM: 2.8 log
R17 [1]; Table 5, 32 uM, 1 minute irradiation, starting titer approx. 7.2 logs
  R17 Log Kill 32 uM: 5.3 log
R17 [1]; experiment 1, 32 μM cmpd, 1′ uva, phage only 7.7
  LOG TITER: <1 log
R17 [1]; experiment 1, 32 μM cmpd, 10′ uva, phage only 7.7
  LOG TITER: <1 log
R17 [1]; experiment 1, compound only (32 μM), not irradiated, phage only 7.7
  LOG TITER: 7.6 log
R17 [1]; experiment 2, 3.2 μM cmpd, 1′ uva, phage only 7.8
  LOG TITER: 6.9 log
R17 [1]; experiment 2, 3.2 μM cmpd, 10′ uva, phage only 7.8
  LOG TITER: 6.1 log
R17 [1]; experiment 2, compound only (3.2 μM), not irradiated, phage only 7.8
  LOG TITER: 7.7 log
R17 [1]; experiment 3, 4 μM cmpd, 1′ uva, phage only 7.3
  LOG TITER: 6.3 log
R17 [1]; experiment 3, 8 μM cmpd, 1′ uva, phage only 7.3
  LOG TITER: 5.6 log
R17 [1]; experiment 3, 16 μM cmpd, 1′ uva, phage only 7.3
  LOG TITER: 3.9 log
R17 [1]; experiment 3, compound only (16 μM), not irradiated, phage only 7.3
  LOG TITER: 7.3 log
TA100; TA100, with and without S9
  mutation in the TA100 strain: only in the absence of S9

## Cc1oc2c(C)c3oc(=O)cc(C)c3cc2c1COCCN [Compound 2, 4′-(4-Amino-2-oxa)butyl-4,5′,8-trimiethylpsoralen Hydrochloride]
cell-free virus (HIV); [3]
  HIV Log Kill 16 μM: 1.4 log
  HIV Log Kill 32 μM: 3.8 log
  HIV Log Kill 64 μM: >4.5 log
cell-free virus (HIV); concentrations of 64 μM of compound or higher
  HIV inactivation activity compared with AMT: significantly more active than AMT

## Cc1oc2c(C)c3oc(=O)cc(C)c3cc2c1CNCCCN [Compound 5, 4′-(5-amino-2-aza)pentyl-4,5′,8-trimethylpsoralen dihydrochloride]
cell-free virus (HIV); [3]
  HIV Log Kill 16 μM: 0.9 log
  HIV Log Kill 32 μM: 1.3 log
  HIV Log Kill 64 μM: >2.6 log
R17 [1]; Table 6, 16 uM, 1 minute irradiation = 1.2 J/cm^2
  R17 log kill 16 uM: 5.6 log
R17 [1]; Table 6, 32 uM, 1 minute irradiation = 1.2 J/cm^2
  R17 log kill 32 uM: >6.1 log
R17 [1]; Table 6, 1 minute irradiation = 1.2 J/cm^2
  R17 log kill 64 uM: >6.1 log

## Cc1oc2c(C)c3oc(=O)cc(C)c3cc2c1COCCOCCN [Compound 7, 4′-(7-Amino-2,5-oxa)heptyl-4,5′,8-trimethylpsoralen Hydrochloride]
cell-free virus (HIV); [3]
  HIV Log Kill 16 μM: 0.8 log
  HIV Log Kill 32 μM: 2.1 log
  HIV Log Kill 64 μM: 3.5 log
R17 [1]; Table 7, 16 uM, 1 minute irradiation
  R17 log kill 16 uM: >6 log
R17 [1]; Table 7, 32 uM, 1 minute irradiation
  R17 log kill 32 uM: >6 log
R17 [1]; Table 7, 1 minute irradiation
  R17 log kill 64 uM: >6 log

## Cc1oc2c(C)c3oc(=O)cc(C)c3cc2c1COCCOCCNCCCCN.Cl.Cl [Compound 8, 4′-(12-Amino-8-aza-2,5-dioxa)dodecyl-4,5′,8-trimethylpsoralen Dihydrochloride]
cell-free virus (HIV); [3]
  HIV Log Kill 16 μM: 1.1 log
  HIV Log Kill 32 μM: 1.9 log
  HIV Log Kill 64 μM: 3.7 log

## Cc1oc2c(C)c3oc(=O)cc(C)c3cc2c1CNCCCOCCCCOCCN [Compound 9]
cell-free virus (HIV); [4]
  HIV Log Kill 16 μM: 0.8 log
  HIV Log Kill 32 μM: 1.4 log
  HIV Log Kill 64 μM: 2.7 log

## Cc1oc2c(C)c3oc(=O)cc(C)c3cc2c1CNCCCCCN.Cl.Cl [Compound 10, 4′-(7-amino-2-aza)heptyl-4,5′,8-trimethylpsoralen dihydrochloride]
cell-free virus (HIV); [4]
  HIV Log Kill 16 μM: 2.0 log
  HIV Log Kill 32 μM: >3.5 log
  HIV Log Kill 64 μM: >3.5 log
R17 [2]
  R17 inactivation compared with AMT: more efficient at inactivating R17 than was AMT

## Cc1oc2c(C)c3oc(=O)cc(C)c3cc2c1CNCCCNCCCN [Compound 12]
cell-free virus (HIV); [4]
  HIV Log Kill 16 μM: 0.4 log
  HIV Log Kill 32 μM: 0.8 log
  HIV Log Kill 64 μM: 1.3 log
R17 [2]
  R17 inactivation compared with AMT: more efficient at inactivating R17 than was AMT

## Cc1oc2c(C)c3oc(=O)cc(C)c3cc2c1CNCCCNCCCCNCCCN.Cl.Cl.Cl.Cl [Compound 15, 4′-(14-Amino-2,6,11-triaza)tetradecyl-4,5′,8-trimethylpsoralen Tetrahydrochloride]
R17 [2]
  R17 inactivation compared with AMT: more efficient at inactivating R17 than was AMT

## Cc1cc(=O)oc2c(C)c3oc(COCCN)c(C)c3cc12 [Compound 18]
cell-free virus (HIV); [4]
  HIV Log Kill 16 μM: 1.0 log
  HIV Log Kill 32 μM: 1.0 log
  HIV Log Kill 64 μM: 3.1 log

## [N-]=[N+]=[N-] [sodium azide, reference compound]
TA100; TA100 −S9, 1.5 μg/plate
  revertant colonies per plate, positive control: 965
